Key:
[1] = test system: Tte preQ1 U22Ap (RNA, riboswitch, 2-aminopurine at 22 (replaces U)) CUGGGUCGCAGUAACCCCAGUUAACAAAACAAG; experiment: 2-aminopurine fluorescence titration; settings: 100 mM KCl, 2 mM MgCl2; 50 mM MOPS pH 7.5, 25 °C, 0.5 µM RNA
[2] = test system: Tte preQ1 U22Ap (RNA, riboswitch, 2-aminopurine at 22 (replaces U)) CUGGGUCGCAGUAACCCCAGUUAACAAAACAAG; experiment: stopped-flow 2-aminopurine fluorescence; koff = kon × KD; settings: 100 mM KCl, 2 mM MgCl2; 50 mM MOPS pH 7.5, 25 °C; calculated, one approximate value for preQ1 and 4a
[3] = test system: preQ1-like (40 nt, lmo2684 upstream region) (RNA, mRNA element) UACAGCUAGCUAGCUGAAAAUUAUAAAAAACUAAAGAGGU; experiment: 1H NMR imino spectra; settings: 25 mM NaCl, 2 mM MgCl2; 15 mM sodium cacodylate pH 6.5, 25 °C, 0.15 mM RNA; no high affinity association
[4] = test system: Tte preQ1 U22Ap (RNA, riboswitch, 2-aminopurine at 22 (replaces U)) CUGGGUCGCAGUAACCCCAGUUAACAAAACAAG; experiment: stopped-flow 2-aminopurine fluorescence; settings: 100 mM KCl, 2 mM MgCl2; 50 mM MOPS pH 7.5, 25 °C
[5] = test system: queT (41 nt) (RNA, riboswitch) ACGUGGUUCAUUCAUACCAUCCCACGUAAAAAAACUAGGAG; experiment: 1H NMR imino spectra; settings: 25 mM NaCl, 2 mM MgCl2; 15 mM sodium cacodylate pH 6.5, 25 °C, 0.15 mM RNA

KD(preQ1) [1]: 64 nM
koff [2]: ~ 7.5 × 10^−4 s^−1
binding [3]: no
kon(preQ1) [4]: 13000 M⁻¹ s⁻¹
binding [5]: yes
SMILES: NCc1c[nH]c2nc(N)[nH]c(=O)c12

Reference: paper PMC12519234 (2025)
